Test system: rat gastric corpus
Assay type: in vitro ADME
Settings: omeprazole-treated vs control
Procedure: The numbers provided hereinbelow (Table 6) represent the transepithelial diffusion (mucosal to serosal) of radiolabeled bradykinin. […] It includes only intact bradykinin.
Two data sets from two experiments are provided. These are bradykinin fluxes in picomoles/min/cm^2. One tissue was treated only with DMSO (vehicle control). […] The other tissue (paired pieces of rat gastric corpus) is treated with omeprazole in DMSO. […] The bradykinin leak in controls is likely due to ‘experimental artifact’—in this case mechanical damage of the tissue in handling plus incubation. The increase in flux (leak) of bradykinin seen with DMSO may not be a function of the DMSO at all, but instead simply be a result of tissue ‘breakdown’ over time due to the tissue's very finite lifespan once out of the animal.

CC[C@H](C)[C@@H]1NC(=O)[C@H](Cc2ccc(O)cc2)NC(=O)[C@@H](N)CSSC[C@@H](C(=O)N2CCC[C@H]2C(=O)N[C@@H](CC(C)C)C(=O)NCC(N)=O)NC(=O)[C@H](CC(N)=O)NC(=O)[C@H](CCC(N)=O)NC1=O [oxytocin, Cys-Tyr-Iso-Gln-Asn-Cys-Pro-Leu-Gly]
leak with omeprazole over control: not observed
